# Measured values reported in patent US12668599B2, “Heterobifunctional compounds and methods of treating disease” (Halda Therapeutics OpCo, Inc., priority 2023, dated 2026).
# Assays:
# [1] = Stability analysis of Crystal Form A and Crystal Form B in solvent suspensions (XRPD); assay type: physicochemical
# Protocol: The obtained suspensions were stirred at 25° C. and 50° C. for 1 week, respectively. Solid parts (wet cakes) were isolated by centrifugation filtration at […] temperature and investigated by XRPD.
# [2] = tested on: T-Rex 293 cell line SC3 cells lacking increased expression of androgen receptor protein; assay: Cellular growth inhibition, T-Rex 293 SC3 cells without doxycycline (CellTiter-Glo 2.0, 72 hours); assay type: cell-based; settings: 72 h, T-Rex 293 SC3 cells not exposed to doxycycline (no increased androgen receptor expression)
# [3] = target: T1, androgen receptor and BRD4 protein (Homo sapiens, UniProt O60885+P10275); assay: Tumor TR-FRET trimer assay on tumors of the PK/PD Castrate VCaP model; assay type: in vivo, CB17.SCID mice; settings: PK/PD Castrate VCaP Tumor Xenograft Model
# T1 construct: Tumors obtained from the Castrate VCaP Model were lysed; from tissue; host or cells: VCaP tumour xenografts grown in castrated CB17.SCID mice
# T1 sequence (P10275 whole entry, other chains not shown): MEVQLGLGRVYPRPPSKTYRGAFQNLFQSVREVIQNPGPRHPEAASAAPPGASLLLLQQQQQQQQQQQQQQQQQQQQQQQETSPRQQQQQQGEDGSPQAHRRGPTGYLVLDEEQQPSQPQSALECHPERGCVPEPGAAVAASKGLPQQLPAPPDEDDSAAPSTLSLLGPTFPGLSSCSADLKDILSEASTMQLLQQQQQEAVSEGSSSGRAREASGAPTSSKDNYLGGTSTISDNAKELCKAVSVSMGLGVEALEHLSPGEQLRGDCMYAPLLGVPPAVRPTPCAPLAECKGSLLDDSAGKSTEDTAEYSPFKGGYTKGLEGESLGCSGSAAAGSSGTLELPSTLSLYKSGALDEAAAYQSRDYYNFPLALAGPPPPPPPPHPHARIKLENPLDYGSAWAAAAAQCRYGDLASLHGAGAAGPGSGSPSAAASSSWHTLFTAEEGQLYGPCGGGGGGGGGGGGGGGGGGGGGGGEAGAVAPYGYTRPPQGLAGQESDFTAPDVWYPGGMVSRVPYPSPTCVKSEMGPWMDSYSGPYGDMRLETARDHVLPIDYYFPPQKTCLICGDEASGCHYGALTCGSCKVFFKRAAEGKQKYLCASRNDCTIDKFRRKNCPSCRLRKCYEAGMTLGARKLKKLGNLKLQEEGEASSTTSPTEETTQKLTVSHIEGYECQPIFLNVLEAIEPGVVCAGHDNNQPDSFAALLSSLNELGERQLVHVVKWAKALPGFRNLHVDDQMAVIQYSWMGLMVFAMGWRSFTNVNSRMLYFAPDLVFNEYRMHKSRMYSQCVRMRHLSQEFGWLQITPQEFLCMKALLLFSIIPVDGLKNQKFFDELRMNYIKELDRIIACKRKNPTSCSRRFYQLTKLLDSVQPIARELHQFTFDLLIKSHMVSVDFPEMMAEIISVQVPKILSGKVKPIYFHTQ
# Protocol: 5M VCaP cells were subcutaneously implanted into CB17.SCID mice in 50% Matrigel (Corning). Mice were castrated under anesthesia once tumor volumes reached 100 mm^3. Tumors were then allowed to reach an average of approximately 150 mm^3 before randomization into efficacy arms. Tumors were measured twice weekly for Tumor Growth Inhibition (TGI) calculation. For PK/PD analysis, tumors were allowed to reach an average of 400 mm^3, before dosing the mice with test compound by oral gavage (n=5) for seven days. Mice were sacrificed 24 hours following the final dose, and tumors were harvested for downstream analysis. Plasma samples were collected from all dosed mice 2 hours following the final dose to determine test compound exposure by LC-MS/MS. […] the United States Food and Drug Administration for treatment of prostate cancer ([…]).
# Tumors obtained from the Castrate VCaP Model were lysed in Cell Signaling Technology lysis buffer supplemented with protease/phosphatase inhibitors and nuclease. Each tumor was lysed in 10 μL of lysis buffer per mg of tumor and placed in a TissueLyser for 4 minutes at 20 Hz. Each sample was spun down at 16000×g for 10 minutes, the supernatant was removed, and a BCA assay was run to quantify the total protein concentration in each sample. In a white opaque 384 well plate each sample was diluted in supplemented CST lysis buffer to 48 and 24 μg of protein in a total volume of 16 μL. 4 μL of a 1:1 mixture of anti-androgen receptor and anti-BRD4 antibodies with donor and acceptor fluorophores were mixed into each well containing tumor samples. The plate was spun down at 300×g for one minute, placed on a plate shaker at 400 RPM for 10 minutes, spun down at 300×g for one minute, then sealed with a plate seal and stored overnight. Approximately 16 hours after adding antibodies, the plate was read on an Envision plate reader. The ratiometric value of each well was calculated by dividing the acceptor signal by the donor signal and multiplying by 10,000.
compound,measurement,setting,value
"COc1cc(O[C@H]2C(C)(C)[C@H](NC(=O)c3cnc(N4CCC5(CC4)CC(Oc4ccc(C6=N[C@@H](Cc7ncco7)c7nnc(C)n7-c7sc(C)c(C)c76)cc4)C5)nc3)C2(C)C)ccc1C#N [II-5, N-[(1r,3r)-3-(4-cyano-3-methoxy-phenoxy)-2,2,4,4-tetramethyl-cyclobutyl]-2-[2-[4-[(9S)-4,5,13-trimethyl-9-(oxazol-2-ylmethyl)-3-thia-1,8,11,12-tetrazatricyclo[8.3.0.0^2,6]trideca-2 (6),4,7,10,12-pentaen-7-yl]phenoxy]-7-azaspiro[3.5]nonan-7-yl]pyrimidine-5-carboxamide]",XRPD form after suspension,"[1]; about 3 mg Crystal Form A + 3 mg Crystal Form B in saturated Acetone solution, 25° C. for 1 week",Crystal Form A
same,XRPD form after suspension,"[1]; about 3 mg Crystal Form A + 3 mg Crystal Form B in saturated Acetone solution, 50° C. for 1 week",Crystal Form A
same,XRPD form after suspension,"[1]; about 3 mg Crystal Form A + 3 mg Crystal Form B in saturated Acetonitrile solution, 25° C. for 1 week",Crystal Form A
same,XRPD form after suspension,"[1]; about 3 mg Crystal Form A + 3 mg Crystal Form B in saturated Acetonitrile solution, 50° C. for 1 week",Crystal Form A
same,XRPD form after suspension,"[1]; about 3 mg Crystal Form A + 3 mg Crystal Form B in saturated EtOH solution, 25° C. for 1 week",Crystal Form A
same,XRPD form after suspension,"[1]; about 3 mg Crystal Form A + 3 mg Crystal Form B in saturated EtOH solution, 50° C. for 1 week",Crystal Form A
same,XRPD form after suspension,"[1]; about 3 mg Crystal Form A + 3 mg Crystal Form B in saturated THF/Heptane (1/1, v/v) solution, 25° C. for 1 week",Crystal Form A
same,XRPD form after suspension,"[1]; about 3 mg Crystal Form A + 3 mg Crystal Form B in saturated THF/Heptane (1/1, v/v) solution, 50° C. for 1 week",Crystal Form A
same,GI50,[2],< 500 nM
same,"ternary complex formation between compound, androgen receptor, and BRD4 protein in tumors","[3]; oral gavage for seven days, varying doses, FIG. 4",observed
same,"ternary complex formation between compound, androgen receptor, and BRD4 protein in tumors","[3]; Compound II-5 and Compound B at the same dose and dosing frequency, FIG. 20",observed
